Data from patent US9700609B2, “Compositions for treatment and/or prevention of autoimmune disorders” (University of Florida Research Foundation, Incorporated, priority 2013, dated 2017).

Tests used:
[1] = system: CD11b+ and CD11c+ leukocytes (APC); experiment: APC frequency and MHC expression by flow cytometry in splenocyte cultures with graded doses of bacteria and anti-CD3; format: cell-based, NOD and NOR mice
Experimental: FIG. 8. LjN6.2, but not LrTD1, increases APC activation in NOD mice. Spleenocytes derived from NOD or NOR mice, were cultured with graded doses of LjN6.2 or LrTD1 in the presence of anti-CD3. Following 48 hours incubation, samples were analyzed through flow cytometry for APC activation. A) Histograms showing changes in CD11b and CD11c frequencies upon treatment of NOD in vitro leukocyte cultures with LjN6.2 (red), LrTD1(black) or CD3 (shaded). B) Graphs showing percentage of CD11b^+ and CD11c^+ leukocytes in NOD and NOR cells cultures incubated with graded doses of bacteria as indicated. C) Graphs showing changes in MHC expression levels on CD11c^+ and CD11b^+ APC upon treatment with graded doses of LjN6.2 (shaded square) or LrTD1 (open square).
(§1) Whole lymphocytes or BMOC were incubated with 4 μg/mL anti-CD3, (LjN6.2) and/or L. reuteri TD1 (LrTD1) at various concentrations as indicated. At 48 hours, 100 μL of supernatant was removed from each well and replenished with fresh medium. Cytokine ELISAs were subsequently performed on harvested supernatants. ELISA kits were purchased from BD Bioscience: anti-IFNγ (555138; BD Biosciences, San Diego, Calif.), and anti-IL6 (555240). Capture mAb (555068) and detection mAb (555067) for IL17 were purchased from BD Biosciences. Cytokine standard for IL-17A was purchased from eBioscience (14-8171-80).
(§2) Single cell suspensions of pooled LN (axillary, inguinal, brachial, mesenteric, and superficial cervical), and spleen were stained with the following mAbs for flow-cytometric analysis: anti-CD4-Pacific Blue (RM4-5), anti-MHC I-FitC (KH95), anti-CD11c-PE (N418; eBioscience, San Diego, Calif.), anti-B220-APC (RA3-6B2, eBioscience), anti-CD11b-A700 (M1/70), anti-CD11b-FitC (M1/70, eBioscience), […] (N418, eBioscience), anti CD86-A700 (GL1), anti-CD80-PE (16-10A1), DEC 205-APC (205yekta) and anti-MHC II-FC (39-10-8) mAb. All flow cytometry antibodies were purchased from BD PharMingen unless otherwise stated. 50,000-100,000 live events were collected on a LSRII (BD PharMingen) and analyzed using FlowJo software (Tree Star, San Carlos, Calif.). The absolute numbers of cells recovered from various organs was determined by multiplying the total number of cells isolated from various tissues by the percentage of total cells bearing a lineage specific marker denoted by flow cytometry.

BBDP rats = settings: cited from earlier work; for Th17 bias: BBDP rat and NOD mouse (Lau et al. (2011)); for T1D resistance: oral transfer to BBDP rats (Valladares et al. (2010))
DEC205 on CD11c+ DC = experiment: DEC205 expression on CD11c+ DC in splenocyte cultures, flow cytometry; format: cell-based, NOD and NOR mice; settings: both NOD and NOR CD11c+ DC, dose dependent
Experimental: FIG. 9. Enhanced DC maturation mediated by LjN6.2 surface antigens. Spleenocytes derived from NOD or NOR mice, were cultured with graded doses of LjN6.2 or LrTD1in the presence of anti-CD3, as in FIG. 4. Subsequent to incubation, samples were analyzed for expression of the endocytic marker, DEC 205. A) Overlay histograms showing changes in DEC205 frequency on CD11c^+ DC upon treatment of NOD cultures with varying doses of LjN6.2 and LrTD1. B) Graphical representations of DEC205 expression on CD11c^+ DC present within NOD and NOR cultures upon incubation with varying doses of LjN6.2 and LrTD1. […]
as §2, with “All flow cytometry antibodies were purchased from BD PharMingen unless otherwise stated.” left out, “The absolute numbers of cells recovered from various organs was determined by multiplying the total number of cells isolated from various tissues by the percentage of total cells bearing a lineage specific marker denoted by flow cytometry.” left out

BMDC = experiment: IL6 production by BMDC incubated with LjN6.2 or lysed bacterial components, ELISA; format: cell-based, NOD mice; settings: NOD BMDC matured with GM-CSF
Experimental: FIG. 9. Enhanced DC maturation mediated by LjN6.2 surface antigens. Spleenocytes derived from NOD or NOR mice, were cultured with graded doses of LjN6.2 or LrTD1in the presence of anti-CD3, as in FIG. 4. Subsequent to incubation, samples were analyzed for expression of the endocytic marker, DEC 205. A) Overlay histograms showing changes in DEC205 frequency on CD11c^+ DC upon treatment of NOD cultures with varying doses of LjN6.2 and LrTD1. B) Graphical representations of DEC205 expression on CD11c^+ DC present within NOD and NOR cultures upon incubation with varying doses of LjN6.2 and LrTD1. C) Maturing DC (BMDC), derived from NOD mice were matured in the presence of GM-CSF, followed by incubation with LjN6.2 or beadbeater lysed LjN6.2 bacterial cellular components. Left, graph showing IL6 production by BMDC incubated with either intact LjN6.2, or fractional equivalents of nonviable lysed LjN6.2 components defined by ultracentrifugation as membrane (pellet components) or cytosolic (soluble) components. […]
Bacterial cells were incubated with 0.1 mm glass beads and homogenized through the use of a beadbeater (Qbiogene) according to manufacturers' instructions. […] Efficiency of bacterial disruption was assessed through the culture of bacterial lysates on agar plates under anaerobic conditions.

[2] = system: LN cells (CD11b+ leukocytes); experiment: CD11b and CD40 expression in pooled LN cells cultured with bacteria, flow cytometry; format: cell-based, NOD mice; settings: NOD pooled LN cells, 48 hour incubation
Experimental: (§3) FIG. 12. LjN6.2 but not LrTD1 up-regulates expression of CD11b. LN cells (brachial, inguinal, cervical and mesenteric) were isolated from NOD mice and pooled, followed by culturing in the presence or absence of bacteria. After 48 hour incubation, supernatants were removed and cells were analyzed by flow cytometry. Please note that concentration 1 (Lj1 and Lr1) is 3 fold higher than concentration 2 (Lj2 and Lr2).
as §3, with “13. […]” for “12. LjN6.2 but not LrTD1 up-regulates expression of CD11b.”, “pooled” for “pooled,”, “culture” for “culturing”, “cytometry. CD11b^+ cells were first gated and then further analyzed for CD40 expression.” for “cytometry.”
Single cell suspensions of pooled LN (axillary, inguinal, brachial, mesenteric, and superficial cervical), and spleen were stained with the following mAbs for flow-cytometric analysis: anti-CD4-Pacific Blue (RM4-5), anti-MHC I-FitC (KH95), anti-CD11c-PE (N418; eBioscience, San Diego, Calif.), anti-B220-APC (RA3-6B2, eBioscience), anti-CD11b-A700 (M1/70), anti-CD11b-FitC (M1/70, eBioscience), […] (N418, eBioscience), anti CD86-A700 (GL1), anti-CD80-PE (16-10A1), DEC 205-APC (205yekta) and anti-MHC II-FC (39-10-8) mAb. […]

T lymphocytes = experiment: IFNγ production and IFNγ+/IL17+ T lymphocytes after bacterial treatment; format: cell-based
Experimental: FIG. 14. L. johnsonii modulates adaptive immune response. […] Also, L. johnsonii increased the percentages of IFNγ^+ and IL17^+ T lymphocytes in a dose dependent manner.
as §1

NOD mice = experiment: Systemic Th17 bias after oral feeding or pulsed DC vaccination; format: in vivo; settings: oral feeding
From the text: In apparent contrast, T1D onset can also be inhibited through the generation of Foxp3^+ regulatory T cells which can be mediated by tolerogenic, immature DC. […] Therefore, restoration of DC function by oral administration of specific bacteria, or administration of a vaccine composed of gut flora modified DC, can be used to restore immune tolerance.

Row | Substance | modulation of MHC ([1]; CD11c+ and CD11b+ APC, in contrast to LjN6.2) | Th17 bias (BBDP rats) | T1D resistance (BBDP rats) | levels of MHC classes I and II on CD11c+ DC ([1]; NOD derived CD11c+ DC, dose dependent) | frequency of both CD11b+ and CD11c+ leukocytes ([1]; NOD derived primary cell cultures, graded doses, anti-CD3, 48 hours) | frequency of CD11b+ and CD11c+ leukocytes ([1]; NOR cultures, graded doses, anti-CD3, 48 hours) | MHCI and MHCII expression on CD11c+ DC ([1]; NOR derived CD11c+ DC) | CD11b+MHCIhi leukocytes ([1]; both NOD and NOR cultures) | frequency of CD11b+MHCIIhi leukocytes ([1]; both NOD and NOR cultures) | DEC205 expression on CD11c+ DC (DEC205 on CD11c+ DC) | IL6 production by BMDC (BMDC) | CD11b expression [2] | CD40 expression on CD11b+ leukocytes [2] | IFNγ production (T lymphocytes; compared with L. reuteri) | percentages of IFNγ+ and IL17+ T lymphocytes (T lymphocytes; dose dependent) | systemic Th17 bias (NOD mice)
1 | L. reuteri TD1 [LrTD1] | reduced, or negligible | nor mediated a Th17 bias | neither conferred T1D resistance |  |  |  |  |  |  |  |  |  |  |  |  | 
2 | Lactobacillus johnsonii N6.2 [LjN6.2] |  | APC dependent, Th17 bias observed | sufficient to confer T1D resistance | upregulated | consistently up-regulated | only moderately increased | failed to specifically increase | decrease | increase | down-regulation | copious amounts | up-regulates | up-regulated | more profoundly than L. reuteri | increased | sufficient to mediate a systemic Th17 bias
